Test results from US12577247B2 (BUGWORKS RESEARCH, INC., priority 2021, dated 2026).

What was measured:
A2A receptor [1] = biological target: T1, A2A receptor (Homo sapiens, UniProt P29274); experiment: A2aR antagonism IC50, cAMP TR-FRET (Lance Ultra) in HEK-293 cells, NECA as agonist; assay type: cell-based; settings: A2AR IC50 (nM) (@5 nM NECA), HEK-293 cells expressing A2A receptor; agonist NECA 5 nM (EC90); inhibition of cAMP;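 note: compounds tested from 10 µM down to 0.08 nM in buffer with Rolipram at room temperature, TR-FRET cAMP signal read 1 h after adding Eu-cAMP tracer and ULight anti-cAMP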
T1 construct: host or cells: HEK-293
T1 sequence (P29274 whole entry): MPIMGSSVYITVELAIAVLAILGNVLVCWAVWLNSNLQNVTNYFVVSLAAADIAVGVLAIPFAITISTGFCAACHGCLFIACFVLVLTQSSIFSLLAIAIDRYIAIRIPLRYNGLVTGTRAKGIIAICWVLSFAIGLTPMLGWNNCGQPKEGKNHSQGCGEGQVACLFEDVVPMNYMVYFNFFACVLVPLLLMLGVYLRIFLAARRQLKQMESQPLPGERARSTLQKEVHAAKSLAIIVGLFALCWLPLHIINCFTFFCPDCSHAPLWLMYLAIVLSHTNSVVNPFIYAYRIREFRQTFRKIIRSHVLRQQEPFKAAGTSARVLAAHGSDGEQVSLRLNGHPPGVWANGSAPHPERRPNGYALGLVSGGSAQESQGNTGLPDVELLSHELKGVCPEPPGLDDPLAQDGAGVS
From the text: (§1) Adenosine A2A receptors and Adenosine A2B receptors induce the production of cAMP when activated/stimulated by an agonist like adenosine or 5′-(N-Ethylcarboxamido) adenosine (NECA). A Time-Resolved Fluorescence Energy Transfer (TR-FRET) assay was used to show the inhibition of this cAMP production in HEK cells upon treatment with compounds of the Formula I of the present disclosure.
(§2) HEK-293 cells expressing A2A receptor (#ES-011-C) or A2B receptor (#ES 013-C) were obtained from PerkinElmer. Cells were maintained in DMEM medium supplemented with 10% FBS and 200 μg/mL of G418 at 37° C. and 5% CO2. The cells were cultured in antibiotic free medium for a period of 16-20 hours prior to the assay. All subsequent steps of the assay are performed at room temperature (22-24° C.). The cells were harvested at about 80% confluency by gentle flushing with PBS, recovered by centrifugation and resuspended in stimulation buffer at the concentration of 5.0×10^6 cells/mL.
(§3) The assays were conducted in a stimulation buffer containing 1×DMEM, 5 mM HEPES, 0.1% BSA stabilizer and 20-30 μM Rolipram. Serial dilutions of compounds were made in stimulation buffer to achieve a final concentration of high micromolar (10 μM to 0.08 nM) in the reaction volume of 10 μL. The total reaction volume was 10 μL (5 μL of cells, 2.5 μL of antagonist and 2.5 μL of agonist). The stimulation was ended, and the reaction completed by adding 5 μL of 4× Eu-cAMP tracer working solution and 5 μL of 4× ULight-anti-cAMP working solution. The TR-FRET signal was measured after 1-hour incubation using a Tecan M1000 reader.

A2B receptor [2] = biological target: T2, A2B receptor (Homo sapiens, UniProt P29275); experiment: A2bR antagonism IC50, cAMP TR-FRET (Lance Ultra) in HEK-293 cells, NECA as agonist; assay type: cell-based; set-up: host or cells: HEK-293; settings: HEK-293 cells expressing A2B receptor; agonist NECA 30 nM (EC90); inhibition of cAMP
T2 sequence (P29275 1-332): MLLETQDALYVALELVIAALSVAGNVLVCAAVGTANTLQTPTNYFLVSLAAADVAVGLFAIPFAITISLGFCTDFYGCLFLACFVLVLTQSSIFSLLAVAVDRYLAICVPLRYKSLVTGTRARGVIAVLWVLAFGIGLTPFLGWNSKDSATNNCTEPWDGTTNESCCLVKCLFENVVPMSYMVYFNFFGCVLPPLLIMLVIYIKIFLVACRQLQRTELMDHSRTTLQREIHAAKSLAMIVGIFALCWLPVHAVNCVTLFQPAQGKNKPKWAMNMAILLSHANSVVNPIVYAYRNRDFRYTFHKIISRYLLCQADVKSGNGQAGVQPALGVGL
From the text: as §1, §2, §3

A2B receptor [3] = biological target: T2, A2B receptor; experiment: A2bR antagonism IC50, cAMP TR-FRET in HEK-293 cells, high concentration of adenosine (30 μM); settings: A2BR IC50 (nM) (@30 μM Adenosine), HEK-293 cells expressing A2B receptor; agonist adenosine 30 μM; 2% HSA; inhibition of cAMP;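 note: compounds preincubated 10 min with cells, then adenosine stimulation 30 min at room temperature in buffer with Rolipram 100 µM and EHNA 30 µM, TR-FRET read after 1 h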
A2A receptor [4] = biological target: T1, A2A receptor; experiment: A2aR antagonism IC50, cAMP TR-FRET in HEK-293 cells, high concentration of adenosine (30 μM); assay type: cell-based; settings: HEK-293 cells expressing A2A receptor; agonist adenosine 30 μM; 2% HSA; inhibition of cAMP; read-out: A2AR IC50 (nM) (@30 μM Adenosine);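 note: compounds added 10 min before adenosine, then 30 min stimulation at room temperature in buffer with 100 µM rolipram and 30 µM EHNA, signal read 1 h after detection reagents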

| IC50 (A2A receptor [1]) [nM] | IC50 (A2B receptor [2]) [nM] | IC50 (A2B receptor [3]) [nM] | IC50 (A2A receptor [4]) [nM] | SMILES |
| --- | --- | --- | --- | --- |
| 0.3 | 9 | 829 | 117 | CCc1c(C)nn2c(N)c(C#N)c(NCCc3ccn(C4CCCC4CO)n3)nc12 (stereo not drawn) [Example 115, 7-amino-3-ethyl-5-((2-(1-(2-(hydroxymethyl)cyclopentyl)-1H-pyrazol-3-yl)ethyl)amino)-2-methylpyrazolo[1,5-a]pyrimidine-6-carbonitrile] |
| 0.3 | 6 | 4260 | 635 | Cc1nn2c(N)c(C#N)c(NCCc3cccc(C4(CO)CC4)n3)nc2c1C [Example 49, 7-amino-5-((2-(6-(1-(hydroxymethyl)cyclopropyl)pyridin-2-yl)ethyl)amino)-2,3-dimethylpyrazolo[1,5-a]pyrimidine-6-carbonitrile] |
| 0.2 | 3.6 | 2370 | 2160 | CCc1c(C)nn2c(N)c(C#N)c(NCCc3cccc(C4(CO)CC4)n3)nc12 [Example 50, 7-amino-3-ethyl-5-((2-(6-(1-(hydroxymethyl)cyclopropyl)pyridin-2-yl)ethyl)amino)-2-methylpyrazolo[1,5-a] pyrimidine-6-carbonitrile] |
| 0.1 | 2 | 700 | 81 | CCc1c(C)nn2c(N)c(C#N)c(NCCc3ccn(C4CCC4CO)n3)nc12 (racemic) [Example 77, (+−)-7-amino-3-ethyl-5-((2-(1-(2-(hydroxymethyl)cyclobutyl)-1H-pyrazol-3-yl)ethyl)amino)-2-methylpyrazolo[1,5-a]pyrimidine-6-carbonitrile] |
| 0.12 | 7 | 1770 | 78 | Cc1nn2c(N)c(C#N)c(NCCc3ccn(C4(CO)CC4)n3)nc2c1Cl [Example 37, 7-amino-3-chloro-5-((2-(1-(1-(hydroxymethyl)cyclopropyl)-1H-pyrazol-3-yl)ethyl)amino)-2-methylpyrazolo[1,5-a]pyrimidine-6-carbonitrile] |
| 0.17 | 2.1 | 1290 | 348 | Cc1nn2c(N)c(C#N)c(NCCc3cccc(C4CC4CO)n3)nc2c1C (stereo not drawn) [Example 51, 7-amino-5-((2-(6-(2-(hydroxymethyl)cyclopropyl)pyridin-2-yl)ethyl)amino)-2,3-dimethylpyrazolo[1,5-a]pyrimidine-6-carbonitrile] |
| 0.4 | 6 | – | 160 | Cc1nn2c(N)c(C#N)c(NCCc3cccc(C4(CO)CC4)n3)nc2c1Cl [Example 34, 7-amino-3-chloro-5-((2-(6-(1-(hydroxymethyl)cyclopropyl)pyridin-2-yl)ethyl)amino)-2-methylpyrazolo[1,5-a]pyrimidine-6-carbonitrile] |
| 0.8 | 22 | – | 250 | Cc1nn2c(N)c(C#N)c(NCCc3ccn(C(C)(C)CO)n3)nc2c1Cl [Example 36, 7-amino-3-chloro-5-((2-(1-(1-hydroxy-2-methylpropan-2-yl)-1H-pyrazol-3-yl)ethyl)amino)-2-methylpyrazolo[1,5-a]pyrimidine-6-carbonitrile] |
| 0.74 | 8.6 | 3790 | 250 | Cc1nn2c(N)c(C#N)c(NCCc3ccn(C4(CO)CC4)n3)nc2c1C [Example 55, 7-amino-5-((2-(1-(1-(hydroxymethyl)cyclopropyl)-1H-pyrazol-3-yl)ethyl)amino)-2,3-dimethylpyrazolo[1,5-a]pyrimidine-6-carbonitrile] |
| 0.5 | 7.3 | 2130 | 452 | CCc1c(C)nn2c(N)c(C#N)c(NCCc3ccn(C(C)(C)CO)n3)nc12 [Example 32, 7-amino-3-ethyl-5-((2-(1-(1-hydroxy-2-methylpropan-2-yl)-1H-pyrazol-3-yl)ethyl)amino)-2-methylpyrazolo[1,5-a]pyrimidine-6-carbonitrile] |
| 1.2 | 53 | 1060 | 112 | Cc1nn2c(N)c(C#N)c(NCCc3ccn(C4CCC4CN)n3)nc2c1Cl (stereo not drawn) [Example 95, 7-amino-5-((2-(1-(2-(aminomethyl)cyclobutyl)-1H-pyrazol-3-yl)ethyl)amino)-3-chloro-2-methylpyrazolo[1,5-a]pyrimidine-6-carbonitrile] |

Second part, the compound before the results:

| SMILES | IC50 (A2A receptor [1]) [nM] | IC50 (A2B receptor [2]) [nM] | IC50 (A2B receptor [3]) [nM] | IC50 (A2A receptor [4]) [nM] |
| --- | --- | --- | --- | --- |
| CCc1c(C)nn2c(N)c(C#N)c(NCCc3cccc(CO)n3)nc12 [Example 45, 7-amino-3-ethyl-5-((2-(6-(hydroxymethyl)pyridin-2-yl)ethyl)amino)-2-methylpyrazolo[1,5-a] pyrimidine-6-carbonitrile] | 0.58 | 2.9 | 650 | 935 |
| CCc1c(C(F)F)nn2c(N)c(C#N)c(NCCc3ccn(C4(CO)CC4)n3)nc12 [Example 58, 7-amino-2-(difluoromethyl)-3-ethyl-5-((2-(1-(1-(hydroxymethyl)cyclopropyl)-1H-pyrazol-3-yl)ethyl)amino) pyrazolo[1,5-a]pyrimidine-6-carbonitrile] | 0.22 | 4.7 | 12200 | 756 |
| Cc1nn2c(N)c(C#N)c(NCCc3cccc(CO)n3)nc2c1Cl [Example 33, 7-amino-3-chloro-5-((2-(6-(hydroxymethyl)pyridin-2-yl)ethyl)amino)-2-methylpyrazolo[1,5-a]pyrimidine-6-carbonitrile] | 0.38 | 0.97 | 1420 | 206 |
| CCc1c(C)nn2c(N)c(C#N)c(NCCc3cccc(C)n3)nc12 [Example 17, 7-Amino-3-ethyl-2-methyl-5-((2-(6-methylpyridin-2-yl)ethyl)amino) pyrazolo[1,5-a]pyrimidine-6-carbonitrile] | 0.15 | 0.87 | 2380 | 260 |
| Cc1nn2c(N)c(C#N)c(NCCc3cc(C)n(C4(CO)CC4)n3)nc2c1C [Example 86, 7-amino-5-((2-(1-(1-(hydroxymethyl)cyclopropyl)-5-methyl-1H-pyrazol-3-yl)ethyl)amino)-2,3-dimethylpyrazolo[1,5-a]pyrimidine-6-carbonitrile] | 0.2 | 19 | 2550 | 43 |
| CCc1cccc(CCNc2nc3c(C)c(C)nn3c(N)c2C#N)n1 [Example 40, 7-amino-5-((2-(6-ethylpyridin-2-yl)ethyl)amino)-2,3-dimethyl pyrazolo [1,5-a] pyrimidine-6-carbonitrile] | < 0.1 | 3.6 | 2380 | 260 |
| Cc1nn2c(N)c(C#N)c(NCCc3cccc(C4CC4CO)n3)nc2c1Cl (stereo not drawn) [Example 38, 7-amino-3-chloro-5-((2-(6-(2-(hydroxymethyl)cyclopropyl)pyridin-2-yl)ethyl)amino)-2-methylpyrazolo[1,5-a]pyrimidine-6-carbonitrile] | 0.1 | 4.4 | – | 178 |
